In ChEMBL document CHEMBL5728311, “Benzyl phenyl ether derivative, preparation method therefor, and pharmaceutical composition and uses thereof” (2021) one finds IC50 data, which are given here for three compounds.

Molecules are shown by their SMILES.

For the assay, the target named is Programmed cell death protein 1/Programmed cell death 1 ligand 1 (Homo sapiens, UniProt Q15116+Q9NZQ7). The assay is described as follows: In Vitro Activity Assay: 1) Principle: PD-1 protein is with HIS tag, and PD-1 ligand PD-L1 is with hFc tag. Eu labeled anti-hFc antibody and XL665 labeled anti-HIS antibody are combined with the above two label proteins respectively. After laser excitation, energy can be transferred from donor Eu to receptor XL665, allowing XL665 to glow. […] Reagents should be dispensed in the following order. For 384-well white ELISA plate, 2 μl of diluent or target compound diluted with diluent was added to each well, and then 4 μl of PD-1 protein and 4 μl of PD-L1 protein were added per well, incubated for 15 min at room temperature; and 10 μl of a mixture of anti-Tag1-Eu3+ and anti-Tag2-XL665 was added per well and incubated for 1 h to 4 h at room temperature and the fluorescence signals at 665 nm and 620 nm were measured with an Envison instrument. HTRF rate=(665 nm/620 nm)[…]. 8-10 concentrations were detected for each compound and IC50 was calculated by Graphpad software. It is filed as protein-complex assay.
Chain of Programmed cell death protein 1/Programmed cell death 1 ligand 1 (Q15116 whole entry): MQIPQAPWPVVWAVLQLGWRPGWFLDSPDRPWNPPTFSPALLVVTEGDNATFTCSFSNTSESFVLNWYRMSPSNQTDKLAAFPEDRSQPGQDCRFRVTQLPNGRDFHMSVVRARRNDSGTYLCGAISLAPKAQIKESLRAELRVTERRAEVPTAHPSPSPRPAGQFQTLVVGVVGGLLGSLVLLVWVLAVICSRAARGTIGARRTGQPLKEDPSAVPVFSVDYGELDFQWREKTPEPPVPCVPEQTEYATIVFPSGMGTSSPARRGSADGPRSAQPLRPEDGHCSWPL
Chain of Programmed cell death protein 1/Programmed cell death 1 ligand 1 (Q9NZQ7 whole entry): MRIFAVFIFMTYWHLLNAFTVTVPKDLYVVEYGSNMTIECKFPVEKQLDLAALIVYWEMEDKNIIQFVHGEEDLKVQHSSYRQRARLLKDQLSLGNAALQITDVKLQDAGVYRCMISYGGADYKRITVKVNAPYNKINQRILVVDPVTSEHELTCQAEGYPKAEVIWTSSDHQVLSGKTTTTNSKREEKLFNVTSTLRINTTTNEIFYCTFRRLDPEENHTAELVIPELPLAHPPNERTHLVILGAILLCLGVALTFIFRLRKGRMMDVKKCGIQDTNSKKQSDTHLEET

Consider `N#Cc1cccc(COc2cc(OCc3cccc(-c4ccccc4)c3Br)ccc2CN2CCOCC2)c1`, for which the IC50 was 0.458 µM.
The result for `N#Cc1cccc(COc2cc(OCc3cccc(-c4ccccc4)c3Br)c(Cl)cc2CNCCO)c1` reads 0.00529 µM; that for `CS(=O)(=O)NCCNCc1ccc(OCc2cccc(-c3ccccc3)c2Br)cc1OCc1cccc(C#N)c1`, 0.979 µM.
